What was measured:
[1] = system: HEK293; test: cells; type: functional; conditions: Homo sapiens, ATCC CRL1573, HEK293; ASSAY_TEST Inhibition of Cell Viability; detection method Resazurin; Fluorescence (ex560/em590); MEDIA DMEM with 10% FBS; plate type 384well; TC; CORNING #3712; time 18 hr
[2] = system: Cryptococcus neoformans
Description: Antifungal activity against Cryptococcus neoformans H99 ATCC 208821 (CO-ADD:FG_002); MIC in YNB media using NBS plates, by Resazurin OD(600-570)

[3] = system: Staphylococcus aureus; test: microbe, parasite or virus in culture; conditions: ATCC 43300, 18 h, ASSAY_TEST Inhibition of Bacterial Growth, detection method Absorption (OD600), MEDIA CAMHB, plate type 384well, NBS, CORNING #3640
Description: Antibacterial activity against Staphylococcus aureus MRSA ATCC 43300 (CO-ADD:GP_020); MIC in CAMBH media, using NBS plates, by OD(600)

[4] = system: Escherichia coli; test: microbe, parasite or virus in culture; conditions: ATCC 25922, 18 h, ASSAY_TEST Inhibition of Bacterial Growth, detection method Absorption (OD600), MEDIA CAMHB, plate type 384well, NBS, CORNING #3640
Description: Antibacterial activity against Escherichia coli ATCC 25922 (CO-ADD:GN_001); MIC in CAMBH media using NBS plates, by OD(600)

[5] = system: Klebsiella pneumoniae; test: microbe, parasite or virus in culture; conditions: ATCC 700603, 18 h, ASSAY_TEST Inhibition of Bacterial Growth, detection method Absorption (OD600), MEDIA CAMHB, plate type 384well, NBS, CORNING #3640
Description: Antibacterial activity against Klebsiella pneumoniae MDR ATCC 70063 (CO-ADD:GN_003); MIC in CAMBH media using NBS plates, by OD(600)

[6] = system: Pseudomonas aeruginosa; test: microbe, parasite or virus in culture; conditions: ATCC 27853, 18 h, ASSAY_TEST Inhibition of Bacterial Growth, detection method Absorption (OD600), MEDIA CAMHB, plate type 384well, NBS, CORNING #3640
Description: Antibacterial activity against Pseudomonas aeruginosa ATCC 27853 (CO-ADD:GN_042); MIC in CAMBH media using NBS plates, by OD(600)

[7] = system: Acinetobacter baumannii; test: microbe, parasite or virus in culture; conditions: ATCC 19606, 18 h, ASSAY_TEST Inhibition of Bacterial Growth, detection method Absorption (OD600), MEDIA CAMHB, plate type 384well, NBS, CORNING #3640
Description: Antibacterial activity against Acinetobacter baumannii ATCC 19606 (CO-ADD:GN_034); MIC in CAMBH media using NBS plates, by OD600

[8] = system: Candida albicans; test: microbe, parasite or virus in culture; conditions: ATCC 90028, ASSAY_TEST Inhibition of Fungal Growth, detection method Absorption (OD530)
Description: Antifungal activity against Candida albicans ATCC 90028 (CO-ADD:FG_001); MIC in YNB media using NBS plates, by OD630

[9] = system: Pseudomonas aeruginosa; test: Antibacterial activity against Pseudomonas aeruginosa PAO397 [PAO1 d(mexAB-oprM) d(mexCD-oprJ) d(mexEF-oprN) d(mexJKL) d(mexXY) d(opmH)] (CO-ADD:GN_211); MIC in CAMBH media using NBS plates, by OD(600); type: functional; conditions: ASSAY_TEST Inhibition of Bacterial Growth, detection method Absorption (OD600), MEDIA CAMHB, plate type 384well, CORNING #3640, time 18 hr

| MIC [2] [µg/mL] | MIC [3] [µg/mL] | MIC [4] [µg/mL] | MIC [5] [µg/mL] | MIC [6] [µg/mL] | MIC [7] [µg/mL] | MIC [8] [µg/mL] | MIC [9] [µg/mL] | Compound | CC50 [1] [µg/mL] |
| --- | --- | --- | --- | --- | --- | --- | --- | --- | --- |
| > 32 | > 32 | > 32 | > 32 | > 32 | > 32 | > 32 |  | Cc1cccc(NC(=O)Cn2nc3c(Sc4ccc(C)cc4C)nccn3c2=O)c1 | > 32 |
| > 32 | > 32 | > 32 | > 32 | > 32 | > 32 | > 32 | > 32 | Cc1ccc(CN(c2ccc(F)c(F)c2)S(=O)(=O)c2cccn3cnnc23)cc1 | > 32 |

— ChEMBL document CHEMBL4513146, “CO-ADD screening of Karazin Kharkiv National University (Ukraine) compounds”
